Laboratory results reported in US4839380A, “1-Thiocarbamoylmethylpyrrolidine-2-thione, medical compositions of, and anti-hypoxic and nootropic use thereof” (priority 1988, dated 1989).

Tests used:
mice [1] = assay: Acute hypobaric hypoxia: lifespan of mice at the height of 11,000 m; type: in vivo, mice (male, tetrahybrids)
Protocol: (§1) The antihypoxic effect of the compound according to the present invention was studied in comparison with pyracetam on various experimental models of hypoxic states in experiments on mice and rats. The compound according to the present invention and pyracetam were administered intraperitoneally in the form of an aqueous emulsion prepared with Tween-80.
The studies were carried out on a model of an acute hypobaric hypoxia.
An acute […] hypoxia was modelled in a flow-type barometric chamber at an ambient temperature of 17°-20° C. with absorption of carbon dioxide and water.
The test animals (male mice, tetrahybrids) with a mass of 15-22 g of the same generation were "lifted" (under simulation conditions) at the mean speed of 50 m/sec to the height of 11,000 m at which the lifespan (in minutes) for the same series of experiments was evaluated. Furthermore, the mice were discretely lifted at the same speed to the height of 10,000 m where they stayed for 1 minute and then to the height of 11,000 m, where they again were kept for 1 minute and so on, till their death for the determination of the height "ceiling", The animals' death was adjudicated by the occurrence of an agonal breathing against the background of convulsions. The total number of mice employed in the experiments was 200.
As the comparison preparation pracetam was used. The compound according to the present invention and pyracetam were administered one hour before the "lift".

mice [2] = assay: Acute normobaric hypoxia: lifespan of mice; type: in vivo
Protocol: as §1
(§2) Investigations were also carried out with a model of an acute normobaric hypoxia.
(§3) An acute normobaric hypoxia was simulated in a flow-type barometric chamber at an ambient temperature of 17°-22° C. with absorption of carbon dioxide and water. A gas mixture ([…] and 3% of O2) was admitted into the barometric chamber at the rate of 10 1/min. The lifespan of test animals (mice, rats) in the chambers was recorded since the moment of the mixture admission into the chamber till the moment of perdition of the animals which was adjudicated by an agonal breathing against the background of convulsions. The modes of administration of the preparations, species of animals and analysis of the results of the experiments are similar to those described hereinbefore for the case of an acute hypobaric hypoxia. The experiments were carried out using 50 mice and 20 rats.

rats [3] = assay: Acute normobaric hypoxia: lifespan of rats; type: in vivo
Protocol: as §1, §2, §3

rats [4] = assay: Learning speed and performing of electrodefensive conditioned reflex of avoidance; type: in vivo, rats (nondescript male)
Description: The study of the compound according to the present invention for the speed of learning and performing the produced conditioned reflux was effected in experiments on rats using the method of electrodefensive conditioned reflexes of avoidance.
The study of the effect on the learning speed and fulfilment of the elaborated conditioned reflex was effected on 40 nondescript male rats with a mass of 150170 g (4 groups of 10 rats in each) by the method of electrodefensive conditioned reflexes. Conditioned reflexes were trained in all rats for ringing used as a conditional irritation signal supported by a non-conditional irritating agent--electric current (40-50 V) supplied to an electrified floor of a conditioned-reflex chamber. As the criterion for the elaboration of the conditioned reflex the rat's jump onto a stand in response to switching-on of a bell during the first 10 seconds after the beginning of the sound was assumed.
All rats, against the background of elaboration of conditioned reflexes, were administered over 3 weeks (5 times a week) with: the first group--the compound according to the present invention in the dose of 250 mg/kg; the second and third group--pyracetam in the doses of 500 and 1,000 mg/kg; and the fourth group--control--isotonic solution of sodium chloride. The administration was effected intraperiotoneally 24 hours before the experiment.

mice [5] = assay: Memory consolidation: conditioned reflex of passive avoidance in a two-chamber unit; type: in vivo, mice (nondescript male white)
Protocol: The study of the effect on processes of consolidation (fixation) of memory was carried out on 400 nondescript male white mice with a mass of 18-20 g using the procedure of a conditioned reflex of passive avoidance in a two-chamber unit, one of the chambers being darkened. In the bottom of the dark chamber an electrode floor is mounted, to which an electric current (50-60 V) can be applied.
Due to their biological specific features, mice prefer to stay in the dark chamber. At the end of the exposure lasting for 180 seconds of the residence of an animal in the dark chamber which, as a rule, actually takes place, an electric current is applied to the irritating device and a mouse is forced to leave its shelter.
Therefore, after a single-time training a conditioned reflex of passive avoidance is elaborated in mice. The resproduction of the effect which is evaluated by the laten period time (in seconds) of the visit to the dark chamber (or by the time of residence in the light chamber) was effected after 24 hours.
The compound according to the present invention and pyracetam were administered in doses of 200-250 mg/kg (pyracetam also in the dose of 1,000 mg/kg) intraperitoneally right after elaboration of the conditioned reflex.

[6] = Convulsions caused by thiosemicarbazide; type: in vivo, white mice
Description: The interaction of the compound according to the present invention with thiosemicarbazide--a specific antagonist of gamma-aminobutyric acid (GABA) was also studied.
Due to the fact that in functioning of the brain, in particular in processes of learning and memorizing, gammaaminobutyric acid (GABA) plays an important role, the possibility of the presence of a GABA-ergic component in the mechanism of action of the compound according to the present invention was studied. To this end, the ability of the compound according to the present invention to prevent convulsions caused by thiosemicarbazide, which is an inhibitor of an enzyme synthesizing gamma-aminobutyric acid, was studied.
The experiments were carried out on 140 white mice of 18-20 g mass. Thiosemicarbazide was administered hypodermally in the dose of 20 mg/kg. The compound according to the present invention was administered intraperitoneally in the doses of 50, 250 and 500 mg/kg 20 minutes after administration of thiosemicarbazide. For every dose 20 mice were used. The presence of the anticonvulsion activity was determined by the change of the latent period of occurrence of convulsions and by extension of the period of death of the animals. The experiments were carried out in comparison with pyracetam.

[7] = dose 4 times that of the compound of the invention

NC(=S)CN1CCCC1=S [Compound of the present invention, 1-thiocarbamylmethylpyrrolidine-2-thione]
lifespan of mice at the height of 11,000 m (mice [1]; 100 mg/kg): 12.58 ± 8.64 min
lifespan of mice at the height of 11,000 m, % (control = 100%) (mice [1]; 100 mg/kg): 206.2 ± 59.7%
lifespan of mice at the height of 11,000 m (mice [1]; 250 mg/kg): 19.97 ± 4.93 min
lifespan of mice at the height of 11,000 m, % (control = 100%) (mice [1]; 250 mg/kg): 327.4 ± 80.8%
lifespan of mice at the height of 11,000 m (mice [1]; 500 mg/kg): 30.0 ± 0 min
lifespan of mice at the height of 11,000 m, % (control = 100%) (mice [1]; 500 mg/kg): 491.8 ± 0.0%
superiority to pyracetam in effect on the lifespan duration at 11,000 m (mice [1]; versus pyracetam): 3-4 times
increase of resistance of mice to acute normobaric hypoxia as compared to the control (mice [2]; mice, 250 mg/kg): 4.5 times
lifespan at an acute normobaric hypoxia, mice (mice [2]; mice, 250 mg/kg): 22.21 ± 3.23 min
lifespan at an acute normobaric hypoxia, mice, % (control = 100%) (mice [2]; mice, 250 mg/kg): 469.5 ± 68.3%
superiority to pyracetam in effectiveness, mice (mice [2]; mice, versus pyracetam at 500 mg/kg): 3.2 times
superiority to pyracetam in effectiveness (mice [2]; versus pyracetam at 250 mg/kg): 5 times
increase of resistance of rats to acute normobaric hypoxia as compared to the control (rats [3]; 250 mg/kg): 1.5 times
lifespan at an acute normobaric hypoxia, rats (rats [3]; 250 mg/kg): 27.38 ± 7.07 min
lifespan at an acute normobaric hypoxia, rats, % (control = 100%) (rats [3]; 250 mg/kg): 147.2 ± 38.0%
superiority to pyracetam in effectiveness, rats (rats [3]; versus pyracetam at 500 mg/kg): 1.5 times
acceleration of elaboration and fixation of a conditioned reflex (rats [4]; 250 mg/kg): about 2 times
combinations of conditional and non-conditional irritation agents after which the reflex is fixed (rats [4]; 250 mg/kg): 49-65 combinations
lowering of the latent period of the conditioned reflex as compared to the control (rats [4]; 250 mg/kg): more than 2 times
latent period of the conditioned reflex of avoidance (rats [4]; 250 mg/kg, control 2.14±0.71 s): 0.87 ± 0.32 s
effective dose (learning and performing of conditioned response of avoidance in rats) (rats [4]; rats): 250 mg/kg
effective dose lower than that of pyracetam (mice [5]; 200 mg/kg versus pyracetam 1.000 mg/kg): 5 times
minimal effective dose (mice [5]; Mus musculus, ip, 24 h, read-out: effective dose (memory consolidation)): 200 mg/kg
duration of the latent period of the reflex of passive avoidance (mice [5]; ip, 200 mg/kg, 24 h): 136.2 ± 6.6 s
efficiency of the positive influence upon dose increasing (mice [5]; up to 500 mg/kg): does not grow
Latent period of convulsion occurrence ([6]; 50 mg/kg): 59 (51.5-66.5) min
Time period after which animals die ([6]; 50 mg/kg): 76 (64-88) min
Latent period of convulsion occurrence ([6]; 250 mg/kg): 82.6 (76.I-89.I) min
Time period after which animals die ([6]; 250 mg/kg): 100.8 min
Latent period of convulsion occurrence ([6]; 500 mg/kg): 80 (75.6-86.4) min
Time period after which animals die ([6]; 500 mg/kg): 105 (95-115) min
extension of the latent period of occurrence of convulsions as compared to the control ([6]; 250 and 500 mg/kg i.p.): 25-30%
extension of the period of death occurrence as compared to the control ([6]; 250 and 500 mg/kg i.p.): 45-50%

NC(=O)CN1CCCC1=O [Pyracetam, 1-carbamidomethylpyrrolidone-2, reference compound]
lifespan of mice at the height of 11,000 m (mice [1]; 100 mg/kg): inactive
lifespan of mice at the height of 11,000 m (mice [1]; 250 mg/kg): 6.16 ± 0.72 min
lifespan of mice at the height of 11,000 m, % (control = 100%) (mice [1]; 250 mg/kg): 101.0 ± 11.8%
lifespan of mice at the height of 11,000 m (mice [1]; 500 mg/kg): 8.13 ± 2.43 min
lifespan of mice at the height of 11,000 m, % (control = 100%) (mice [1]; 500 mg/kg): 133.3 ± 39.9%
lifespan at an acute normobaric hypoxia, mice (mice [2]; mice, 250 mg/kg): 3.73 ± 0.254 min
lifespan at an acute normobaric hypoxia, mice, % (control = 100%) (mice [2]; mice, 250 mg/kg): 87.7 ± 5.97%
lifespan at an acute normobaric hypoxia, mice (mice [2]; mice, 500 mg/kg): 6.08 ± 0.744 min
lifespan at an acute normobaric hypoxia, mice, % (control = 100%) (mice [2]; mice, 500 mg/kg): 143.1 ± 17.5%
lifespan at an acute normobaric hypoxia, rats (rats [3]; 250 mg/kg): inactive
lifespan at an acute normobaric hypoxia, rats (rats [3]; 500 mg/kg): 17.3 ± 5.25 min
lifespan at an acute normobaric hypoxia, rats, % (control = 100%) (rats [3]; 500 mg/kg): 93.0 ± 28.2%
effect on elaboration and fixation of a conditioned reflex (rats [4]; 1.000 mg/kg): effect similar to that produced by the compound according to the present inventuion in the dose of 250 mg/kg
latent period of the conditioned reflex of avoidance (rats [4]; 1.000 mg/kg): 0.98 ± 0.29 s
effect on elaboration and fixation of a conditioned reflex (rats [4]; 500 mg/kg): inactive
extension of the latent period of the conditioned reflex of passive avoidance (control = 100%) (mice [5]; 1.000 mg/kg): 33.7%
effect on the latent period of passive avoidance (mice [5]; doses lower than 1.000 mg/kg): inactive
effect of extension of the latent period of the reflex of passive avoidance (mice [5]; only in the dose of 1.000 mg/kg, pyracetam, 1,000 mg/kg): the same effect
Latent period of convulsion occurrence ([6]; 1000 mg/kg): 66.6 (61.0-72.2) min
Time period after which animals die ([6]; 1000 mg/kg): 79.9 (64-96.8) min
Latent period of convulsion occurrence ([6]; 2000 mg/kg): 70.6 (65.6-75.6) min
Time period after which animals die ([6]; 2000 mg/kg): 82 (73.6-90.4) min
extension of the latent period of occurrence of convulsions as compared to the control [6, 7]: 10%
extension of the period of death as compared to the control [6, 7]: 17%
effect on thiosemicarbazide convulsions similar to that of the compound of the invention ([6]; higher doses): pronounced but very slightly
